Reference: US8580814B2, “Methods of using (+)-1,4-dihydro-7-[(3S,4S)-3-methoxy-4-(methylamino)-1-pyrrolidinyl]-4- oxo-1-(2-thiazolyl)-1,8-naphthyridine-3-carboxylic acid for treatment of cancer” (priority 2006, dated 2013)
Values after ≈ are worked out from the molar mass of the structure shown.

Experiments:
[1] = test system: HCT-116; assay: Timing of apoptosis (caspase-3 activation); type: cell-based; details: Cell Line HCT-116; dosed at 30 fold above the EC50 for cytotoxicity
[2] = test system: H460 lung cancer cell line; assay: Combination studies, MTT assay, Combination Index; type: cell-based; details: SNS-595 dosed simultaneously with various cytotoxics, H460, Fa=0.5
Experimental: (§1) Cell lines and Cell Culture: HCT116 and NCI-H460 cell lines were obtained from ATCC. SKOV3(p53−/−) and SKOV3(p53+/+) were obtained from the lab of Dr. George Stark of the Lerner Institute of the Cleveland Clinic. All cell lines were cultured in RPMI media supplemented with 10% FBS 1% Sodium Bicarbonate solution and 1% Antibiotic Solution (Cellgro).
(§2) MTT assay: Cells were plated at 4000 cells per well (except SKOV3 (p53−/−) which were plated at 8000 cells per well) in a 96 well plate, incubated for 24 hours and then treated with compound. Compound treatment lasted 72 hours. Cells were then incubated with 5% MTT for 1-2 hours, and lysed. MTT was colorimetrically read at 570 nm. The fraction of dead cells was determined by the following formula: Fraction of Dead cells=1−[Abs of sample well−Avg(Abs of no cell control)]/[Avg(Abs of DMSO only control)−Avg(abs of no cell control)]
(§3) Statistical Analysis: The data (Fraction of Dead cells) was analyzed using Calculsyn.V2 (Biosoft) and is herein represented as the value of the Combination Index at Fraction affected (Fa)=0.5. All data is shown with error bars indicating the 95% confidence intervals of the mean value.
(§4) A combination is said to be additive if it yields a Combination Index of 0.85-1.2. […]

[3] = test system: SKOV3 ovarian cancer cell line with or without p53 expression; assay: Combination studies, MTT assay, Combination Index; type: cell-based; details: SNS-595 dosed simultaneously with a selection of DNA damaging agents and antimetabolites
Experimental: as §1, §2, §3, §4

[4] = test system: CCRF-CEM (lymphoblastic leukemia); assay: MTT cell viability assay, leukemia cells; type: cell-based; details: Homo sapiens, MTT after 72 hours
Experimental: (§5) The following cell lines were used in this assay: HL-60 (promyelocytic leukemia); Jurkat (T cell leukemia); CCRF-CEM (lymphoblastic leukemia); CEM/C2 (camptothecan resistant derivative of CCRF-CEM). Cells were seeded in 96 wells plates at 3000 cells per well and incubated for 16 hours. […] Titrations were diluted 1:100 in media to achieve final compound concentrations. The 96 well plates were aspirated and compound dilutions in media were added ([…]). MTT analysis was carried out after 72 hours of incubation at 37° C. Briefly, […] of MTT solution was added to each well. Cells were incubated at 37° C. for 1-2 hours. […] Plates were read on a spectromax machine with an absorbance measurement at […]. IC50's were calculated (data provided in Table 13) using regression analysis within GraphPad Prism.

[5] = test system: CEM/C2 (camptothecan resistant derivative of CCRF-CEM); assay: MTT cell viability assay, leukemia cells; type: cell-based; details: Homo sapiens; CEM/C2, MTT after 72 hours
Experimental: as §5

[6] = test system: HL-60 (promyelocytic leukemia); assay: MTT cell viability assay, leukemia cells; type: cell-based; details: Homo sapiens; HL-60, MTT after 72 hours
Experimental: as §5

[7] = test system: Jurkat (T cell leukemia); assay: MTT cell viability assay, leukemia cells; type: cell-based; details: Homo sapiens, MTT after 72 hours
Experimental: as §5

[8] = test system: advanced or refractory acute leukemias; assay: Peripheral blasts in patients with advanced or refractory acute leukemias; type: in vivo, human; details: six patients distributed across all dosing groups of Table 15, following cycle 1
Experimental: SNS-595 was administered to patients with advanced or refractory acute leukemias as a slow IV push. Diagnoses included AML (19 patients) and ALL (2 patients). All patients had disease refractory to or relapsed from prior therapy (median 3 prior regimens (range 1-6)). A total of 21 patients (9 female and 12 male; median age=64 yrs, range 21-80) were treated in five cohorts using two schedules. In the first schedule (A), a weekly dose of SNS-595 was administered for three weeks followed by 7 days off (qwk×3). In the second schedule (B), a dose of SNS-595 was administered twice a week for two weeks (biwk×2). The cycle duration, including days off, was 28 days for both schedules. […] Additional cycles were permitted if patients achieved stable disease or better. The starting dose was 18 mg/m^2 on schedule A and 9 mg/m^2 on schedule B, and dosage was escalated by cohort. Cohorts of 3-6 patients were accrued to doses using a modified Fibonacci sequence.

Question: With `CN[C@H]1CN(c2ccc3c(=O)c(C(=O)O)cn(-c4nccs4)c3n2)C[C@@H]1OC` [SNS-595, (+)-1,4-dihydro-7-[(3S,4S)-3-methoxy-4-(methylamino)-1-pyrrolidinyl]-4-oxo-1-(2-thiazolyl)-1,8-naphthyridine-3-carboxylic acid] as the compound, how does the “Timing of apoptosis: fraction of cell cycle to achieve 50% maximal caspase-3 activation” value [1] read?
Answer: 0.4

Question: And the combination indices [2]?
Answer: significantly synergistic or at least additive

Question: What about the “change in the combination index between SKOV3 with or without p53 expression” value [3] of the same compound?
Answer: no significant change

Question: And the IC50 [4]?
Answer: 0.018 µg/mL (≈ 0.0448 µM)

Question: And the IC50 [5]?
Answer: 0.01 µg/mL (≈ 0.0249 µM)

Question: What about the IC50 [6] of the same compound?
Answer: 0.053 µg/mL (≈ 0.132 µM)

Question: What about the IC50 [7] of the same compound?
Answer: 0.023 µg/mL (≈ 0.0573 µM)

Question: And the “reductions in peripheral blasts” value [8]?
Answer: greater than 50%
